Here are results for 11 molecules from ChEMBL document CHEMBL1201862, “PubChem BioAssay data set” (2004).

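Grown in 96-well plates, cells were treated for 48 hours with each compound at five concentrations. Insufficient inhibition: endpoint recorded as highest concentration tested. GI50 is the concentration that inhibits growth by half.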 Calls of active or inactive are those of the source. Cut-off read from the data, not from the text of the source: active = GI50 up to about 1.1 µM and inactive = higher. Where only a bound is given, the exact number is not on record here.

Some test systems named below: 786-0; CAKI-1; HCC 2998; HCT-116; HT-29; K562; LOX IMVI; MDA-MB-435; OVCAR-3; OVCAR-4; SF-295; SF-539; SK-MEL-28; SNB-75; SW-620; IGROV-1; MDA-N; NCI-H226; UACC-62; SR.
Assay in all cases: inhibition of tumour cell growth, NCI panel, 48 h

On to `COc1cnc2oc3ccc(O)cc3c2c1-c1ccccc1`, for which the GI50 with 786-0 is 21.9 µM (inactive); in the test with CAKI-1, > 100 µM (inactive); in the test on HCC 2998, 27.7 µM (inactive); in the test on HCT-116 it was 15.2 µM (inactive); with HT-29, 85.1 µM (inactive); in the test on K562, 22.1 µM (inactive). The GI50 was > 100 µM (inactive) in the test on LOX IMVI; > 100 µM (inactive) in the test with MDA-MB-435; 4.27 µM (inactive) with OVCAR-3; > 100 µM (inactive) with OVCAR-4; 83 µM (inactive) in the test on SF-295; > 100 µM (inactive) with SF-539. The GI50 with SK-MEL-28, in the test with SNB-75 and with SW-620 was > 100 µM (inactive) each time.
Take `CC(=O)/N=C1\NC(=O)/C(=C/c2ccccc2Cl)N1C`: the GI50 in the test with 786-0, in the test with CAKI-1, in the test with HCC 2998, in the test on HCT-116, in the test with HT-29 and in the test on IGROV-1 was > 100 µM (inactive) each time. Besides, the GI50 in the test on LOX IMVI, with MDA-MB-435, with MDA-N, in the test with NCI-H226, with OVCAR-3 and with OVCAR-4 was > 100 µM (inactive) in each case. Further, the GI50 with SF-295, with SF-539, in the test on SK-MEL-28, with SNB-75, in the test with SW-620 and in the test on UACC-62 was > 100 µM (inactive) in each case.
With `O=C(NCCn1ccnn1)Nc1ccccc1`, the GI50 with 786-0, with CAKI-1, in the test with HCC 2998, in the test on HT-29, in the test with IGROV-1 and in the test with K562 was > 100 µM (inactive) throughout. In addition, the GI50 in the test with LOX IMVI, in the test with MDA-MB-435, in the test on SF-295, with SK-MEL-28, in the test with SNB-75 and in the test on SR was > 100 µM (inactive) throughout. Besides, the GI50 in the test on SW-620 was > 100 µM (inactive).
For `CCOC(=O)/C=C1/Nc2cc(F)c(F)cc2NC1=O`, the GI50 with 786-0, with CAKI-1, with HCC 2998, in the test with HCT-116, in the test on HT-29 and in the test on K562 was > 100 µM (inactive) each time. Besides, the GI50 in the test on LOX IMVI, in the test with MDA-MB-435, in the test with MDA-N, in the test with NCI-H226, with OVCAR-3 and in the test on OVCAR-4 was > 100 µM (inactive) throughout. The GI50 with SF-295, with SF-539, in the test on SK-MEL-28, in the test with SNB-75, with SW-620 and with UACC-62 was > 100 µM (inactive) throughout.
With `O=C(c1cc(Cl)ccc1Cl)N1CCN(C(=O)c2cc(Cl)ccc2Cl)CC1`, the GI50 in the test with 786-0 was 91.2 µM (inactive); in the test on CAKI-1, 97.9 µM (inactive); with HCC 2998, > 100 µM (inactive); with HCT-116, > 100 µM (inactive); with HT-29, > 100 µM (inactive); with IGROV-1 it was > 100 µM (inactive). Besides, the GI50 in the test with K562, with LOX IMVI, in the test with MDA-N, in the test on NCI-H226, in the test on OVCAR-3 and with OVCAR-4 was > 100 µM (inactive) each time. Further, the GI50 is 91 µM (inactive) in the test with SF-295; > 100 µM (inactive) in the test on SF-539; > 100 µM (inactive) in the test on SK-MEL-28; 33.1 µM (inactive) in the test with SNB-75; > 100 µM (inactive) with SR; > 100 µM (inactive) in the test on SW-620.
As to `O=C1C(=Cc2ccc(O)cc2)N=C(c2ccccc2)N1n1c(-c2ccccc2)nc2ccccc2c1=O`, the GI50 with 786-0 was > 100 µM (inactive); in the test on CAKI-1, > 100 µM (inactive); with HCC 2998, > 100 µM (inactive); in the test with HCT-116, > 100 µM (inactive); in the test on HT-29 it was 72.8 µM (inactive); with IGROV-1, > 100 µM (inactive). Further, the GI50 in the test on K562 is > 10 µM (inactive); in the test with LOX IMVI it was > 100 µM (inactive); with MDA-MB-435, > 100 µM (inactive); in the test on MDA-N, > 100 µM (inactive); in the test on NCI-H226, > 100 µM (inactive); in the test with SF-295, > 100 µM (inactive). In addition, the GI50 with SF-539 was > 100 µM (inactive); in the test on SK-MEL-28, 88.9 µM (inactive); in the test on SNB-75, > 100 µM (inactive); in the test with SW-620, > 100 µM (inactive); with UACC-62 it was 97.1 µM (inactive).
Consider `C#CCn1c(=O)c2cc(OC)c(OC)cc2n(CC#C)c1=O`, for which the GI50 in the test on 786-0, in the test with CAKI-1, in the test on HCC 2998, in the test on HCT-116, in the test with HT-29 and in the test with IGROV-1 was > 10 µM (inactive) each time. Further, the GI50 in the test on K562, in the test on LOX IMVI, in the test with MDA-MB-435, with MDA-N, in the test with NCI-H226 and in the test with OVCAR-3 was > 10 µM (inactive) throughout. In addition, the GI50 in the test on OVCAR-4, with SF-295, in the test on SF-539, in the test on SK-MEL-28, in the test on SNB-75 and in the test on SW-620 was > 10 µM (inactive) in each case.
Regarding `O=c1oc(-c2ccccc2)c(-c2ccccc2)n1-c1ccc(Br)cc1`, the GI50 in the test with 786-0 is 32.4 µM (inactive); in the test on CAKI-1 it was > 100 µM (inactive); with HCT-116 it was 49.7 µM (inactive); with HT-29, > 100 µM (inactive); in the test with IGROV-1 it was 29.6 µM (inactive); in the test on LOX IMVI, 32.4 µM (inactive). Also, the GI50 was > 100 µM (inactive) in the test with MDA-MB-435; > 100 µM (inactive) in the test with NCI-H226; 47.5 µM (inactive) in the test on OVCAR-3; 27 µM (inactive) in the test with OVCAR-4; 28.1 µM (inactive) in the test with SF-295; 20.6 µM (inactive) with SF-539. The GI50 is > 100 µM (inactive) with SK-MEL-28, 12 µM (inactive) with SNB-75, > 100 µM (inactive) with SW-620 and 73.8 µM (inactive) in the test with UACC-62.
On to `COC(=O)[C@@]12CC3CN(Cc4c1[nH]c1ccccc41)C2CC3=O`, for which the GI50 in the test with 786-0, in the test with CAKI-1, with HCC 2998, in the test on HCT-116, with HT-29 and with IGROV-1 was > 100 µM (inactive) in each case. Moreover, the GI50 in the test with K562, in the test with LOX IMVI, with MDA-MB-435, in the test with MDA-N, with NCI-H226 and in the test on OVCAR-3 was > 100 µM (inactive) in each case. In addition, the GI50 in the test on OVCAR-4 was > 100 µM (inactive); in the test with SF-295 it was > 100 µM (inactive); in the test on SF-539, > 100 µM (inactive); in the test with SK-MEL-28, > 100 µM (inactive); in the test with SNB-75, 74.8 µM (inactive); in the test with SW-620 it was > 100 µM (inactive). Besides, the GI50 in the test on UACC-62 is > 100 µM (inactive).
On to `Nc1nc(Cl)cc(OCC2(CO)CCCC2)n1`, for which the GI50 with 786-0, in the test with HCC 2998, in the test on HCT-116, in the test with HT-29, in the test with IGROV-1 and in the test with K562 was > 100 µM (inactive) throughout. Besides, the GI50 with LOX IMVI, with MDA-MB-435, in the test with MDA-N, in the test on NCI-H226, in the test with OVCAR-3 and in the test with OVCAR-4 was > 100 µM (inactive) throughout. Also, the GI50 in the test with SF-295, in the test with SF-539, in the test on SK-MEL-28, with SNB-75 and in the test on SW-620 was > 100 µM (inactive) throughout.
For the molecule `NC(Cc1ccc(S(=O)(=O)O)cc1)C(=O)NC(Cc1ccc(S(=O)(=O)O)cc1)C(=O)O` (stereo not drawn), the GI50 in the test with 786-0, in the test with CAKI-1, in the test with HCC 2998, in the test on HCT-116, in the test on HT-29 and in the test with IGROV-1 was > 100 µM (inactive) each time. Besides, the GI50 was 0.0475 µM (active) in the test on K562; > 100 µM (inactive) in the test on LOX IMVI; > 100 µM (inactive) in the test with MDA-MB-435; > 100 µM (inactive) in the test with MDA-N; > 100 µM (inactive) in the test on NCI-H226; > 100 µM (inactive) with OVCAR-3. For the same molecule, the GI50 with OVCAR-4, in the test with SF-295, with SF-539, in the test with SK-MEL-28, in the test with SNB-75 and in the test on SW-620 was > 100 µM (inactive) in each case. Further, the GI50 with UACC-62 is > 100 µM (inactive).
